For the assay, the target named is Complement factor D (Homo sapiens, UniProt P00746). Put plainly: Human Factor D Assay. As for the experimental part: Human Factor D (purified from human serum, Complement Technology, Inc.) at 80 nM final concentration is incubated with test compound at various concentrations for 5 min at room temperature in 50 mM Tris, 1M NaCl, pH 7.5. A synthetic substrate Z-L-Lys-SBzl and DTNB (Ellman's reagent) are added to final concentrations of 100 μM each. Absorbance at 405 nm (A405) is recorded at 30 second intervals for 30 min using a microplate spectrophotometer. IC50 values are calculated by nonlinear regression of complement Factor D reaction rates as a function of test compound concentration.
Complement factor D, sequence (P00746 whole entry): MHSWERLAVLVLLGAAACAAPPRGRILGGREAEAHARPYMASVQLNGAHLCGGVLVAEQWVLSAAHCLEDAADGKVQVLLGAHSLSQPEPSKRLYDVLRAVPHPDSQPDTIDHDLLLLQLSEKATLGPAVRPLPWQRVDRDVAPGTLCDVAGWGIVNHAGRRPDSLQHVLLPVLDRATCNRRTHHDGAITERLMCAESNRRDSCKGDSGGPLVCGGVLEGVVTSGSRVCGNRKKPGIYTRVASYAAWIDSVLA

Consider `CC(=O)c1nn(CC(=O)N2[C@@H](C(=O)Nc3nc(Br)ccc3C)C[C@@]3(C)C[C@@H]23)c2ccc(-c3cnc(C)nc3)cc12` [US11708351, Compound 279], for which the IC50 (usually the concentration at which inhibition is half-maximal) is more than 10 µM.

For the origin of these results see BindingDB's records for patent US11708351 (Achillion Pharmaceuticals, 2023).
